From patent US20040053896A1, “Pharmaceutically active compound” (priority 2000, published 2004)
Where two headings read alike, the source gives them in different places.

Columns and labels:
rat hepatocytes = experiment: Cytotoxicity assay, chromium-51 leakage from monolayer cultures; type: cell-based; details: rat hepatocyte monolayers, 0.012M test material, mean +/- SD, n=5; control 37.61+/-1.56%
Procedure: Activities of supernatants and cells were measured. Chromium-51 leakage is expressed as a percentage of the total activity (medium+cells). Values are mean +/− SD [n=5]. *=P<0.001 CL(CBZ)/CL(CBZ)-Dox and a control (no material added after incubation with chromium-51).

[1] = test system: 12 human tumour cell lines; experiment: Antiproliferative activity in vitro, propidium iodide DNA content; type: cell-based; details: for mean IC70: mean over 12 human tumour cell lines, 4 days continuous exposure
Procedure: Cholyl-lysyl-doxorubicin (VIII) was investigated for antiproliferative activity in vitro in 12 human tumour cell lines (including the large cell lung carcinoma H460, the mammary carcinoma cell line MCF7, the uterus carcinoma cell line UXF 1138L and the large cell lung carcinoma LXFL 529L), and was compared to free doxorubicin and cholic acid as controls. 5-20.000 cells/well were plated into 96 wells. After 24 hours, the compounds were added in dose levels ranging from 3 nM to 30 μM (cholyl-lysyl-doxorubicin and cholic acid) and from 0.3 nM to 3 μM (doxorubicin), respectively.

HepG2 cells = experiment: In vitro toxicity test by in situ end labelling (ISEL), % of dead cells; type: cell-based; details: 4 h incubation
Procedure: Cholyl-lysyl-doxorubicin (VIII) synthesised as described above was subjected to cytotoxicity tests in comparison with free doxorubicin and free cholate using in situ end labelling which enables semi-quantitative measure of apoptosis and necrosis.
HepG2 cells (Cobra American Type Culture Collection) in 24 well plates were used. Doxorubicin, cholate or cholyllysyldoxorubicin (in various amounts up to 0.86 μM) was added in triplicate and incubated for 4 h. The cells were trypsinized off from the well plates, cytospun, and then frozen.
In order to measure cell viability, sections were warmed up to room temperature for 30 minutes, then fixed in acetone for 10 minutes, and then wax was introduced around cells.
An in situ end labelling (ISEL) positive mixture was made up which included buffer (1 ml), dATP (1 μl), dCTP (1 μl), dGTP (1 μl), DiglldUTP (1 μl) and Klenow DNA polymerase (4 μl), and an in situ end labelling negative mixture of buffer (1 ml), dATP (1 μl), dCTP (1 μl), dGTP (1 μl), Digll, 2dUTP and water. (4 μl) was also made up. To each cytospin and coverslip was added 60 μl of the ISEL positive mixture or negative mixture. These were then floated in a water bath at 37° C. for 1 h. The coverslips were then removed and washed 3×5 mins in distilled water, followed by washing in TBS pH 7.5 for 5 mins. Anti digoxigen Alkaline phosphatase diluted 1:200 TBS was added and incubated for 1 h at room temperature and then washed in TBS pH 7.5 for 2.5 mins, followed by further washing in TBS pH 8.2 for another 2.5 mins. A substrate mixture was then made up to include naphthol phosphate (10 mg), NN-dimethylformamide (1 ml), Tris pH 8.2 (49) IM Levamasole (50 μl) and Fast blue (50 mg).
The substrate mixture was added to each cytospin and allowed to develop for 15 mins followed by washing in distilled water and then mounted.

[2] = Percentage of dose in liver, heart, urine and blood at 60 min
Procedure: Further tests were performed to estimate the percentage of the dose of the compounds being tested in the liver, heart, urine and blood of Wistar rats.

Solubility in solvents = type: physicochemical
[3] = for Cumulative biliary excretion, Mean % Dose: Wistar rats; for Biliary excretion, mean % of radioactivity in the dose administered: bolus via jugular vein, 14C-Dox 1 mg/300 μl or 14C-Cpd VIII 2 mg/300 μl, n=6
[4] = Wistar rats, 60 min after injection

Compound | Chromium-51 leakage as a percentage of the total activity (medium+cells) (rat hepatocytes) | Mean % of dead cells (HepG2 cells; 0.03 μM) | Mean % of dead cells (HepG2 cells; 0.06 μM) | Mean % of dead cells (HepG2 cells; 0.12 μM) | Mean % of dead cells (HepG2 cells; 0.86 μM) | Percentage of dose at 60 min, Mean % dose, Urine [2, 4] | mean IC70 [1] | Mean % of dead cells (HepG2 cells; 0.45 μM) | Cumulative biliary excretion, Mean % Dose ([3]; cumulative to 0 min) | Cumulative biliary excretion, Mean % Dose ([3]; cumulative to 10 min) | Cumulative biliary excretion, Mean % Dose ([3]; cumulative to 20 min) | Cumulative biliary excretion, Mean % Dose ([3]; cumulative to 30 min) | Cumulative biliary excretion, Mean % Dose ([3]; cumulative to 40 min) | Cumulative biliary excretion, Mean % Dose ([3]; cumulative to 50 min) | Cumulative biliary excretion, Mean % Dose ([3]; cumulative to 60 min) | Biliary excretion, mean % of radioactivity in the dose administered ([3]; bile aliquot at 10 min) | Biliary excretion, mean % of radioactivity in the dose administered ([3]; bile aliquot at 20 min) | Biliary excretion, mean % of radioactivity in the dose administered ([3]; bile aliquot at 30 min) | Biliary excretion, mean % of radioactivity in the dose administered ([3]; bile aliquot at 40 min) | Biliary excretion, mean % of radioactivity in the dose administered ([3]; bile aliquot at 50 min) | other results
CC(CCC(=O)NC(CCCCNC(=O)OCc1ccccc1)C(=O)O)C1CCC2C3C(O)CC4CC(O)CCC4(C)C3CC(O)C12C (centres unmarked) [CL(CBZ), Cholyllsine-N-ε-CBZ] | 49.01+/−2.57% | – | – | – | – | – | – | – | – | – | – | – | – | – | – | – | – | – | – | – | –
COc1cccc2c1C(=O)c1c(O)c3c(c(O)c1C2=O)CC(O)(C(=O)CO)CC3OC1CC(NC(=O)C(CCCCNC(=O)OCc2ccccc2)NC(=O)CCC(C)C2CCC3C4C(O)CC5CC(O)CCC5(C)C4CC(O)C23C)C(O)C(C)O1 (centres unmarked) [CL(CBZ)-Dox, CholyllysylCBZDoxorubicin] | 36.45+/−3.77% | – | – | – | – | – | – | – | – | – | – | – | – | – | – | – | – | – | – | – | –
C[C@H](CCC(=O)O)[C@H]1CC[C@H]2[C@@H]3[C@H](O)C[C@@H]4C[C@H](O)CC[C@]4(C)[C@H]3C[C@H](O)[C@]12C [Cholate, cholic acid] | – | 1% | 0% | 1.8% | 1% | – | – | – | – | – | – | – | – | – | – | – | – | – | – | – | antitumour activity in vitro ([1]; 12 human tumour cell lines, 3 nM to 30 μM, 4 days exposure): no antitumour activity
COc1cccc2c1C(=O)c1c(O)c3c(c(O)c1C2=O)C[C@@](O)(C(=O)CO)C[C@@H]3O[C@H]1C[C@H](NC(=O)[C@H](CCCCN)NC(=O)CC[C@@H](C)[C@H]2CC[C@H]3[C@@H]4[C@H](O)C[C@@H]5C[C@H](O)CC[C@]5(C)[C@H]4C[C@H](O)[C@]23C)[C@H](O)[C@H](C)O1 [Compound (VIII), Cholyl-Lysyl-Doxorubicin] | – | 7.6% | 10.8% | 20.5% | 96.6% | 2.2 % dose | 1300 nM | 49% | 0 % Dose | 41.7 % Dose | 61.7 % Dose | 69.7 % Dose | 75.3 % Dose | 79.3 % Dose | 81.8 % Dose | 41.7% | 20% | 8% | 5.6% | 4% | Percentage of dose at 60 min, Mean % dose, Blood ([2]; Wistar rats, blood, 60 min after injection): 8.9 % dose; Percentage of dose at 60 min, Mean % dose, Heart ([2]; Wistar rats, heart, 60 min after injection): 0 % dose; Percentage of dose at 60 min, Mean % dose, Liver ([2]; Wistar rats, liver, 60 min after injection): 14.7 % dose; Percentage of dose at 60 min, Mean % dose, Total ([2]; Wistar rats, sum of liver, heart, urine and blood, 60 min): 25.8 % dose; Mean % of dead cells (HepG2 cells; 0.00 μM): 3.3%; Solubility in non-polar solvents (Solubility in solvents; non-polar solvents such as ethoxyethane): insoluble; Solubility in water, methanol and ethanol (Solubility in solvents; water, methanol and ethanol): soluble; Biliary excretion, mean % of radioactivity in the dose administered ([3]; bile aliquot at 60 min): 2.5%; Biliary excretion, mean % of radioactivity in the dose administered ([3]; time 0 min): 0%
COc1cccc2c1C(=O)c1c(O)c3c(c(O)c1C2=O)C[C@@](O)(C(=O)CO)C[C@@H]3O[C@H]1C[C@H](N)[C@H](O)[C@H](C)O1 [Doxorubicin, doxorubicin] | – | 9.4% | 14.9% | 28.9% | 100% | 4 % dose | 700 nM | 50% | 0 % Dose | 2.3 % Dose | 7 % Dose | 9.6 % Dose | 11.7 % Dose | 12.7 % Dose | 13.5 % Dose | 2.3% | 4.7% | 2.6% | 2.4% | 1% | Percentage of dose at 60 min, Mean % dose, Blood ([2]; Wistar, rat, in vivo, 60 min): 74.7 % dose; Percentage of dose at 60 min, Mean % dose, Heart ([2]; Wistar, rat, in vivo, 60 min): 10.8 % dose; Percentage of dose at 60 min, Mean % dose, Liver ([2]; Wistar, rat, in vivo, 60 min): 1.9 % dose; Biliary excretion, mean % of radioactivity in the dose administered ([3]; bile aliquot at 60 min): 0.8%; Biliary excretion, mean % of radioactivity in the dose administered ([3]; time 0 min): 0%
